# Results published in US7253171B2 (Laboratorios Almirall, S.A., priority 2001, dated 2007).
# Target: T1, α4β1 integrin (Homo sapiens, UniProt P05556+P13612)
# T1 construct: endogenous in cells; host or cells: U-937 cells
# Test: U-937 cell adhesion to human VCAM-1 (α4β1 binding assay)
# Type: cell-based
# Conditions: U-937 cells, immobilized human VCAM-1; read-out: IC50 values in the α4β1 assays
# Method: U-937 Cell Adhesion to Human VCAM-1 (α4β1 Binding Assay)
# Recombinant human soluble VCAM-1 (R&D Systems Ltd., UK) at 2 μg/ml in PBS was immobilized overnight onto microtiter plates. Unbound VCAM-1 was washed away and VCAM-1 coated plates were blocked with bovine serum albumin (BSA) 2,5% in PBS for 2 h at room temperature. U-937 cells were labelled with 5-carboxyfluorescein diacetate (5-CFDA) in order to detect bound cells to the wells. Test compounds were added to the wells followed by U-937 cells and the adhesion assay was performed for 1 h at 37° C. Following incubation, the wells were emptied and washed. Inhibition of binding was measured by the quantity of fluorescence bound to the plate for each of the various concentrations of test compound, as well as for controls containing no test compound, with a Cytofluor 2300 fluorescence measurement system.
# T1 sequence (P13612 34-1032): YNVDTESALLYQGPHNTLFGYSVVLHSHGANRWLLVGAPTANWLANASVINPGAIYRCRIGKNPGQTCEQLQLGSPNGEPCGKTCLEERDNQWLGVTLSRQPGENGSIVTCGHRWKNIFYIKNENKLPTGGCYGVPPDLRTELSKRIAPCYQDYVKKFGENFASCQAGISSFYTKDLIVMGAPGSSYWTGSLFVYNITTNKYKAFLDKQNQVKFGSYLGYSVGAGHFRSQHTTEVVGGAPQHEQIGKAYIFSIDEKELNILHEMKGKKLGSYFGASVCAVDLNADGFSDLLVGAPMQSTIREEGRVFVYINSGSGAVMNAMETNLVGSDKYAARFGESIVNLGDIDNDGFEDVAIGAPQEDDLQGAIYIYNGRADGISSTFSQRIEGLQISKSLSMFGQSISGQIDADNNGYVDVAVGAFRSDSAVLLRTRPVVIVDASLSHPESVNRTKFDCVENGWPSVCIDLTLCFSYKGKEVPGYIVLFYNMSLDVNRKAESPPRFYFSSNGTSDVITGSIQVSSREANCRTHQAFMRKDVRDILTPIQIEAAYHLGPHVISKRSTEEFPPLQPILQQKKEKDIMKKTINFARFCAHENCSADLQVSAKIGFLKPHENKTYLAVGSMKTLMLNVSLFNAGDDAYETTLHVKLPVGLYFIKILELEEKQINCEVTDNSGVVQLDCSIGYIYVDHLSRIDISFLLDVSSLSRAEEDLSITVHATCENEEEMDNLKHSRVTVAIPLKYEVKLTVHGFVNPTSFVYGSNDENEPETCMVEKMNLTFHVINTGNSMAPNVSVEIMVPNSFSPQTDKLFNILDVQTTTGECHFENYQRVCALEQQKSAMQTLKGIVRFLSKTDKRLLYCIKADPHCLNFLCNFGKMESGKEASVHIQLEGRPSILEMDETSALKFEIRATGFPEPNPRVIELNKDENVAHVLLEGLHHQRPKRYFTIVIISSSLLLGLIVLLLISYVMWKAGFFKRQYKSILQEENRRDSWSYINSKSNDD
# T1 sequence (P05556 21-798): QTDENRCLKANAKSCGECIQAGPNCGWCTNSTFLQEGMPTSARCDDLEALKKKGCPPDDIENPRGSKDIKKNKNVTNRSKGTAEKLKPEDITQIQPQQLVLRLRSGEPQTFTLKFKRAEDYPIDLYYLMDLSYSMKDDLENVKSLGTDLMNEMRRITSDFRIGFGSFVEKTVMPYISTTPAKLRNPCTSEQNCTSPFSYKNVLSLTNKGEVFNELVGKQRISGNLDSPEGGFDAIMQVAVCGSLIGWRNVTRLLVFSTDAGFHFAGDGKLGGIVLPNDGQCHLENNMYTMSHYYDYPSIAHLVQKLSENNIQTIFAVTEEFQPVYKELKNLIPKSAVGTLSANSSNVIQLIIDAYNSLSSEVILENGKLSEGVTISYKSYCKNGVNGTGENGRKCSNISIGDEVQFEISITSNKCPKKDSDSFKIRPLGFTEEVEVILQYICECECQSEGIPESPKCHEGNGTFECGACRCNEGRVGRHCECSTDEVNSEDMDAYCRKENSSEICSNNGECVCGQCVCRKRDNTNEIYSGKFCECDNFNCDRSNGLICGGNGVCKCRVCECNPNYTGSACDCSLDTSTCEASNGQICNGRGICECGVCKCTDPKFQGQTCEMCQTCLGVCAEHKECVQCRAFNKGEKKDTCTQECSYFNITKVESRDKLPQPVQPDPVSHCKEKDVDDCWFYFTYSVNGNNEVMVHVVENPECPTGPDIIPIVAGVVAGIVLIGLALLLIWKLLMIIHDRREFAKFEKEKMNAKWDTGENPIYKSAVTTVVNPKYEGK
row,IC50 [nM],Compound
1,< 100,"O=C(Nc1ccccc1S(=O)(=O)N1CCCCC1)N[C@@H](Cc1ccc(Oc2nccc3ccncc23)cc1)C(=O)O [Example 140, (S)-3-[4-([2,7]Naphthyridin-1-yloxy)phenyl]-2-{3-[2-(piperidine-1-sulfonyl)phenyl]ureido}propionic acid]"
2,< 100,"O=C(Nc1ccccc1S(=O)(=O)c1ccccc1)N[C@@H](Cc1ccc(NC(=O)c2c(Br)cncc2Br)cc1)C(=O)O [Example 106, (S)-2-[3-(2-Benzenesulfonylphenyl)ureido]-3-(4-{[1-(3,5-dibromopyridin-4-yl)-methanoyl]amino}phenyl)propionic acid]"
3,< 100,"O=C(Nc1ccccc1Sc1ccccc1)N[C@@H](Cc1ccc(NC(=O)c2c(Cl)cccc2Cl)cc1)C(=O)O [Example 44, (S)-3-[4-(2,6-Dichlorobenzoylamino)phenyl]-2-[3-(2-phenylsulfanylphenyl)ureido]propionic acid]"
4,< 100,"O=C(Nc1ccccc1S(=O)(=O)C1CCCC1)N[C@@H](Cc1ccc(NC(=O)c2c(Cl)cncc2Cl)cc1)C(=O)O [Example 92, (S)-2-[3-(2-Cyclopentanesulfonylphenyl)ureido]-3-(4-{[1-(3,5-dichloropyridin-4-yl)methanoyl]amino}phenyl)propionic acid]"
5,< 100,"O=C(Nc1ccccc1S(=O)(=O)c1ccccc1)N[C@@H](Cc1ccc(NC(=O)c2c(Cl)cccc2Cl)cc1)C(=O)O [Example 36, (S)-2-[3-(2-Benzenesulfonylphenyl)ureido]-3-[4-(2,6-dichlorobenzoylamino)phenyl]propionic acid]"
6,< 100,"Cc1ccc(S(=O)(=O)c2ccc(Cl)c(NC(=O)N[C@@H](Cc3ccc(NC(=O)c4c(Cl)cccc4Cl)cc3)C(=O)O)c2)cc1 [Example 54, (S)-2-{3-[2-Chloro-5-(toluene-4-sulfonyl)phenyl]ureido}-3-[4-(2,6-dichlorobenzoylamino)phenyl]propionic acid]"
7,< 100,"CN(C(=O)N[C@@H](Cc1ccc(NC(=O)c2c(Cl)cncc2Cl)cc1)C(=O)O)c1ccccc1Cc1ccccc1 [Example 79, (S)-2-[3-(2-Benzylphenyl)-3-methylureido]-3-(4-{[1-(3,5-dichloropyridin-4-yl)methandyl]amino}-phenyl)propionic acid]"
8,< 100,"O=C(Nc1ccccc1S(=O)(=O)N1CCCCC1)N[C@@H](Cc1ccc(NC(=O)c2c(Cl)cncc2Cl)cc1)C(=O)O [Example 62, (S)-3-{4-[(3,5-Dichloropyridine-4-carbonyl)amino]phenyl}-2-{3-[2-(piperidine-1-sulfonyl)phenyl]ureido}propionic acid]"
9,< 100,"Cc1csc2nc(Sc3ccccc3NC(=O)N[C@@H](Cc3ccc(NC(=O)c4c(Cl)cncc4Cl)cc3)C(=O)O)cnc12 [Example 96, (S)-3-(4-{[1-(3,5-Dichloropyridin-4-yl)methanoyl]amino}phenyl)-2-(3-[2-(7-methylthieno[2,3-b]pyrazin-3-ylsulfanyl)phenyl]ureido}propionic acid]"
10,< 100,"O=C(Nc1ccccc1S(=O)(=O)Nc1ccccc1)N[C@@H](Cc1ccc(NC(=O)c2c(Cl)cccc2Cl)cc1)C(=O)O [Example 22, (S)-3-[4-(2,6-Dichlorobenzoylamino)phenyl]-2-[3-(2-phenylsulfamoylphenyl)ureido]propionic acid]"
11,< 100,"CN(C(=S)N[C@@H](Cc1ccc(NC(=O)c2c(Cl)cncc2Cl)cc1)C(=O)O)c1ccccc1Cc1ccccc1 [Example 144, (S)-2-[3-(2-Benzylphenyl)-3-methylthioureido]-3-(4-{[1-(3,5-dichloropyridin-4-yl)methanoyl]amino}phenyl)propionic acid]"
12,< 100,"O=C(Nc1ccccc1S(=O)(=O)NCc1cccs1)N[C@@H](Cc1ccc(NC(=O)c2c(Cl)cccc2Cl)cc1)C(=O)O [Example 21, (S)-3-[4-(2,6-Dichlorobenzoylamino)phenyl]-2-(3-{2-[(thiophen-2-ylmethyl)sulfamoyl]phenyl}ureido)propionic acid]"
13,< 100,"O=C(Nc1ccccc1S(=O)(=O)N1CCCCC1)N[C@@H](Cc1ccc(Oc2nccc3cnccc23)cc1)C(=O)O [Example 136, (S)-3-[4-([2,6]Naphthyridin-1-yloxy)phenyl]-2-{3-[2-(piperidine-1-sulfonyl)phenyl]ureido}propionic acid]"
14,< 100,"O=C(Nc1ccccc1S(=O)(=O)c1ccccc1)N[C@@H](Cc1ccc(Oc2nccc3cnccc23)cc1)C(=O)O [Example 134, (S)-2-[3-(2-Benzenesulfonylphenyl)ureido]-3-[4-([2,6]naphthyridin-1-yloxy)phenyl]propionic acid]"
15,< 100,"O=C(Nc1ccccc1S(=O)(=O)N1CCCCC1)N[C@@H](Cc1ccc(Nc2nccc3cnccc23)cc1)C(=O)O [Example 124, (S)-3-[4-([2,6]Naphthyridin-1-ylamino)phenyl]-2-{3-[2-(piperidine-1-sulfonyl)phenyl]ureido}propionic acid]"
16,< 100,"O=C(Nc1ccccc1S(=O)(=O)c1ccccc1)N[C@@H](Cc1ccc(NCc2c(Cl)cncc2Cl)cc1)C(=O)O [Example 110, (S)-2-[3-(2-Benzenesulfonylphenyl)ureido]-3-{4-[(3,5-dichloropyridin-4-ylmethyl)amino]phenyl}propionic acid]"
17,< 100,"COc1cncc(OC)c1C(=O)Nc1ccc(C[C@H](NC(=O)Nc2ccccc2S(=O)(=O)c2ccccc2)C(=O)O)cc1 [Example 105, (S)-2-[3-(2-Benzenesulfonylphenyl)ureido]-3-(4-{[1-(3,5-dimethoxypyridin-4-yl)-methanoyl]amino}phenyl)propionic acid]"
18,< 100,"O=C(Nc1ccccc1S(=O)(=O)c1ccccc1)N[C@@H](Cc1ccc(Nc2nccc3ccncc23)cc1)C(=O)O [Example 128, (S)-2-[3-(2-Benzenesulfonylphenyl)ureido]-3-[4-([2,7]naphthyridin-1-ylamino)phenyl]propionic acid]"
19,< 100,O=C(Nc1ccc(C[C@H](NC(=S)Nc2ccccc2S(=O)(=O)N2CCCCC2)C(=O)O)cc1)c1c(Cl)cncc1Cl [Example 147]
20,< 100,"Cc1ccc(C(=O)Nc2ccc(C[C@H](NC(=O)Nc3ccccc3S(=O)(=O)c3ccccc3)C(=O)O)cc2)c(Cl)n1 [Example 103, (S)-2-[3-(2-Benzenesulfonylphenyl)ureido]-3-(4-{[1-(2-chloro-6-methylpyridin-3-yl)methanoyl]amino}phenyl)propionic acid]"
21,< 100,"O=C(Nc1cccc(C(=O)c2ccccc2)c1)N[C@@H](Cc1ccc(NC(=O)c2c(Cl)cncc2Cl)cc1)C(=O)O [Example 77, (S)-3(4-{[1-(3,5-Dichloropyridin-4-yl)methanoyl]amino}phenyl)-2-{3-[3-(1-phenylmethanoyl)phenyl]ureido}propionic acid]"
22,< 100,"CCCCN(Cc1cccs1)S(=O)(=O)c1ccccc1NC(=O)N[C@@H](Cc1ccc(NC(=O)c2c(Cl)cccc2Cl)cc1)C(=O)O [Example 20, (S)-2-{3-[2-(Butylthiophen-2-ylmethylsulfamoyl)phenyl]ureido}-3-[4-(2,6-dichlorobenzoylamino)phenyl]propionic acid]"
23,< 100,"O=C(Nc1cc(Cl)ccc1S(=O)(=O)c1ccccc1)N[C@@H](Cc1ccc(NC(=O)c2c(Cl)cncc2Cl)cc1)C(=O)O [Example 68, (S)-2-[3-(2-Benzenesulfonyl-5-chlorophenyl)ureido]-3-{4-[(3,5-dichloropyridine-4-carbonyl)amino]phenyl}propionic acid]"
24,< 100,"O=C(Nc1ccccc1S(=O)(=O)c1ccccc1)N[C@@H](Cc1ccc(NC(=O)c2c(Cl)cncc2Cl)cc1)C(=O)O [Example 70, (S)-2-[3-(2-Benzenesulfonylphenyl)ureido]-3-{4-[(3,5-dichloropyridine-4-carbonyl)amino]phenyl}propionic acid]"
25,< 100,"O=C(Nc1cc(Cl)ccc1S(=O)(=O)c1ccccc1)N[C@@H](Cc1ccc(NC(=O)c2c(Cl)cccc2Cl)cc1)C(=O)O [Example 48, (S)-2-[3-(2-Benzenesulfonyl-5-chlorophenyl)ureido]-3-[4-(2,6-dichlorobenzoylamino)phenyl]propionic acid]"

row,Compound,IC50 [nM]
1,CN(C(=O)c1ccccc1NC(=O)N[C@@H](Cc1ccc(NC(=O)c2c(Cl)cncc2Cl)cc1)C(=O)O)C1CCCCC1 [Example 80],< 100
2,CN(C(=O)c1ccccc1N(Cc1ccccc1)C(=O)N[C@@H](Cc1ccc(NC(=O)c2c(Cl)cncc2Cl)cc1)C(=O)O)C1CCCCC1 [Example 85],< 100
3,CCCCCN(C(=O)N[C@@H](Cc1ccc(NC(=O)c2c(Cl)cncc2Cl)cc1)C(=O)O)c1ccccc1C(=O)N(C)C1CCCCC1 [Example 84],< 100
4,CN(C(=O)N[C@@H](Cc1ccc(NC(=O)c2c(Cl)cncc2Cl)cc1)C(=O)O)c1ccccc1C(=O)N(C)C1CCCCC1 [Example 81],< 100
5,CN(C(=O)N[C@@H](Cc1ccc(NC(=O)c2c(Cl)cccc2Cl)cc1)C(=O)O)c1ccccc1C(=O)N(C)C1CCCCC1 [Example 32],< 100
6,CN(C(=S)N[C@@H](Cc1ccc(NC(=O)c2c(Cl)cncc2Cl)cc1)C(=O)O)c1ccccc1C(=O)N(C)C1CCCCC1 [Example 146],< 100
7,CN(C1CCCCC1)S(=O)(=O)c1ccccc1NC(=O)N[C@@H](Cc1ccc(NC(=O)c2c(Cl)cncc2Cl)cc1)C(=O)O [Example 66],< 100
8,CN(C(=O)c1ccccc1N(CC1CCCCC1)C(=O)N[C@@H](Cc1ccc(NC(=O)c2c(Cl)cncc2Cl)cc1)C(=O)O)C1CCCCC1 [Example 86],< 100
